One block for each compound: values may come before it. Calls of active or inactive are those of the source.
Legend:
Exodeoxyribonuclease V = Exodeoxyribonuclease V (Escherichia coli (strain K12), UniProt P04993+P07648+P08394); test: RecBCD inhibition via phage-restricted bacterial growth – absorbance, V66 E. coli, mutant T4 phage, counter-screen for AddAB inhibitor project, dose response (AID 492957); type: functional, cell-based, Escherichia coli str. K-12 substr. MG1655
[1] = Counterscreen for AddAB inhibitors: absorbance-based bacterial cell-based high throughput dose response assay for inhibitors of bacterial viability. [Related pubchem assays (depositor defined):AID435030, AID449728, AID449731, AID488942, AID488955, AID488956]; type: functional
Coagulation factor XII = biological target: T1, Coagulation factor XII (Homo sapiens, UniProt P00748); test: activated coagulation factor XII inhibitor potency, concentration-effect curve, cell-free (AID 716); type: functional
T1 sequence (P00748 whole entry): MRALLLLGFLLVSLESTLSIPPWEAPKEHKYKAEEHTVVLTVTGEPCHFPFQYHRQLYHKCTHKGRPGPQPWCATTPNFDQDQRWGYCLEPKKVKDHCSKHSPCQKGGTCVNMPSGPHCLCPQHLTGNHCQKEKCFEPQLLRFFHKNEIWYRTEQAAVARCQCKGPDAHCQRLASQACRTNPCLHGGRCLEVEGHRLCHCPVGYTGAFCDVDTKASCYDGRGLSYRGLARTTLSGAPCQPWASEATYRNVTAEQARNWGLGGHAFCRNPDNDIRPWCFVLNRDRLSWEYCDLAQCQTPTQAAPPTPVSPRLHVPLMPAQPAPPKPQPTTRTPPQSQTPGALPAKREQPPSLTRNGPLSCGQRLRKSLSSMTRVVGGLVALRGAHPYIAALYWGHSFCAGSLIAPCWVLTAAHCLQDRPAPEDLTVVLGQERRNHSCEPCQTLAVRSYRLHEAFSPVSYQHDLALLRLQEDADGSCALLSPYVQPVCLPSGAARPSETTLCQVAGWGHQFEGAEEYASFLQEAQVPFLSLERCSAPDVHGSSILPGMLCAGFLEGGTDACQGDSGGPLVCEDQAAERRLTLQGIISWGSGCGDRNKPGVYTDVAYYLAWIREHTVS

Troponin, cardiac muscle = Troponin, cardiac muscle (Homo sapiens, UniProt P19429+P45379+P63316); test: Fluorescence-based biochemical high throughput dose response assay for activators of the calcium sensitivity of cardiac Regulated Thin Filaments (RTF). [Related pubchem assays (depositor defined):AID493008, AID493018, AID504382, AID504383]; type: protein-complex assay
[2] = biological target: Glyceraldehyde-3-phosphate dehydrogenase (Homo sapiens, UniProt P04406)
[3] = biological target: Alkaline phosphatase, placental type (Homo sapiens, UniProt P05187); test: human placental alkaline phosphatase inhibition – biochemical, luminescence, confirmation (AID 1512); type: functional
[4] = biological target: T2, Alkaline phosphatase, tissue-nonspecific isozyme (Homo sapiens, UniProt P05186); test: potency against alkaline phosphatase TNAP – biochemical, luminescent, dose response, SAR follow-up (AID 1056)
T2 sequence (P05186 whole entry): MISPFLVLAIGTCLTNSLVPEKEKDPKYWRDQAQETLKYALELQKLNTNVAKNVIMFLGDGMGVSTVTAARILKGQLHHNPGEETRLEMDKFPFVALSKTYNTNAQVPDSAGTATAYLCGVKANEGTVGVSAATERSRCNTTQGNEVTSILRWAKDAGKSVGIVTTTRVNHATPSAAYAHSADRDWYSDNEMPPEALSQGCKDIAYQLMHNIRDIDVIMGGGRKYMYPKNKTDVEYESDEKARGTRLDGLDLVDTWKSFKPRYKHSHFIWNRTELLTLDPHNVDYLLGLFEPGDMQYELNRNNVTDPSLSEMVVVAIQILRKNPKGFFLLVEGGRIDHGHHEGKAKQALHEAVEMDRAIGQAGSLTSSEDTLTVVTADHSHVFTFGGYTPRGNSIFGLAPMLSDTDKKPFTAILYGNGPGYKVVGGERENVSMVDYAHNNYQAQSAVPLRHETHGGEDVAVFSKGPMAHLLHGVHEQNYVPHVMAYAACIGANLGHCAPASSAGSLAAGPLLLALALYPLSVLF

[5] = biological target: G-protein coupled receptor 55 (Homo sapiens, UniProt Q9Y2T6); test: inhibition of LPI-stimulated GPR55 beta-arrestin translocation – imaging, U2OS, beta-arrestin-GFP, LPI agonist, primary screen (AID 2013); type: functional;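 note: antagonist potency measured as reduced agonist-driven arrestin aggregation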
[6] = biological target: DNA damage-inducible transcript 3 protein (Mus musculus, UniProt P35639); type: functional, Cricetulus griseus
HEK293 [7] = test: inhibition of NOD1-driven NF-kB reporter – cell-based, luminescence, uHTS, primary screen (AID 1578); type: functional; settings: Homo sapiens
HEK293 [8] = test: cells; type: functional, cell-based; settings: Homo sapiens
HEK293 [9] = test: cells; type: functional, cell-based; settings: Homo sapiens; remark: listed apart in the source
[10] = biological target: Nucleotide-binding oligomerization domain-containing protein 2 (Homo sapiens, UniProt Q9HC29); test: inhibition of NOD2-driven NF-kB reporter – cell-based, luminescence, uHTS, HEK293 (AID 1566); type: functional
HEK293 [11] = test: NOD2 signaling inhibitors in MDP-stimulated cells, cell-based, uHTS, luminescence (AID 2001); type: functional; settings: Homo sapiens
HEK293 [12] = test: cells; type: functional, cell-based; settings: Homo sapiens; remark: listed apart in the source
[13] = biological target: T3, Mannose-6-phosphate isomerase (Homo sapiens, UniProt P34949); test: phosphomannose isomerase inhibition – biochemical, fluorescence intensity, confirmation (AID 1535)
T3 sequence (P34949 whole entry): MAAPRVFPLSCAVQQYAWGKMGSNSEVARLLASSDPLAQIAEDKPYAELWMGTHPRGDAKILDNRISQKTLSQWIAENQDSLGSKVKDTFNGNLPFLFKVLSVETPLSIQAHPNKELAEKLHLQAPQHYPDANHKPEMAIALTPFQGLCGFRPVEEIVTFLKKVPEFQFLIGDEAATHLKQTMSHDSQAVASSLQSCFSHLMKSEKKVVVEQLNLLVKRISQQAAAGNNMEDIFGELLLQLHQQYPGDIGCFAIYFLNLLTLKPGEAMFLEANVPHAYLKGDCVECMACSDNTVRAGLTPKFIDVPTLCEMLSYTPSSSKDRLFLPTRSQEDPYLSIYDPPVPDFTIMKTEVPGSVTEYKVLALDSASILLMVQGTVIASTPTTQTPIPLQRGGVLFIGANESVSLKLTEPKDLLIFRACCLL

Phosphomannomutase 2 = Phosphomannomutase 2 (Homo sapiens, UniProt O15305); test: Counter screen SAR assay for PMM2 inhibitors via a fluorescence intensity assay. [Related pubchem assays (depositor defined):AID1545, AID1574]

Compound: O=C(CSc1nc2ccccc2s1)Nc1ccc(N2CCOCC2)c(Cl)c1
IC50 (Exodeoxyribonuclease V): > 119 µM (inactive) | IC50 [1]: > 119 µM (inactive)

IC50 (Coagulation factor XII): > 50 µM (inactive)
Compound: COC(=O)COc1cccc(-n2cnnn2)c1

Compound: O=C(CCC1CCCC1)NNC(=O)c1cc2ccccc2cc1O
IC50 (Exodeoxyribonuclease V): > 119 µM (inactive) | IC50 [1]: > 119 µM (inactive)

EC50 (Troponin, cardiac muscle): 3.73 µM (active)
Compound: CCCN1CCc2c(sc(NC(=S)NC(=O)c3ccccc3)c2C#N)C1

IC50 [2]: > 100 µM (not active) | IC50 [3]: > 100 µM (inactive) | IC50 [4]: 2.52 µM (active)
Compound: O=C(c1cc(-c2ccc(Cl)cc2Cl)n[nH]1)N1CCCCC1

IC50 [5]: 2.71 µM (active)
Compound: S=C(Nc1ccc(Oc2ccccc2)cc1)N(CCCN1CCOCC1)Cc1ccccn1

Compound: CCCCNS(=O)(=O)c1ccc2nc(-c3cccnc3)cc(C(=O)NC3CCCC3)c2c1
Absolute IC50 (CHOP) [6]: 10 µM

Compound: O=C(Nc1ccc(Cl)cc1)c1cccc(N2C(=O)C3C4CCC(C4)C3C2=O)c1 (stereo not given)
EC50 (HEK293 [7]): 12 µM (active) | IC50 (HEK293 [8]): 15.7 µM (active) | IC50 (HEK293 [9]): > 20 µM (inactive) | EC50 [10]: > 20 µM (inactive) | IC50 (HEK293 [11]): 16.7 µM (inactive) | IC50 (HEK293 [12]): > 20 µM (inactive)

IC50 (Coagulation factor XII): > 50 µM (inactive)
Compound: C=CCOC(=O)C1=C(C)N=C(C)/C(=C(/O)OCC=C)C1c1ccc(O)cc1 (stereo not given)

IC50 [13]: > 100 µM (inactive) | IC50 (Phosphomannomutase 2): > 100 µM (inactive)
Compound: Oc1ccc(/N=c2\ssnc2Cl)cc1
